Source: patent publication US20260008775A1, “AZOLE MODULATORS OF CHOLESTEROL BIOSYNTHESIS AND THEIR USE FOR PROMOTING REMYELINATION” (GENENTECH, INC., priority 2022, published 2026)

Tests used:
[1] = biological target: human emopamil binding protein and human 7-dehydrocholesterol reductase (hEBP-DHCR7) (Homo sapiens (Human), UniProt Q15125); assay: hEBP-DHCR7 radioligand binding assay (filter binding, membranes of co-expressing HEK293 cells); conditions: competition with [3H] radioligand, 8 doses 0.06 to 5000 nM, Ki calculated from IC50
Experimental: Membrane Preparation: human emopamil binding protein and human 7-dehydrocholesterol reductase co-expressing cells were generated by transient transfecting host human embryonic kidney (HEK) 293 cells with 2 DNA constructs containing each protein's coding sequence. Cells were suspension cultured at 37° C. with 5% CO2 in […] 293 Expression Medium (Thermofisher). Whole cell membrane was prepared by harvesting the cell pellet, adding cold membrane buffer (50 mM Tris, pH7.5, 1× Roche COMPLETE EDTA-free protease inhibitor cocktail) 10 times volume of the cell pellets weight, lysing cell pellet on ice by using Dounce homogenizer, spinning at 200 g 4° C. for 15 min, collecting supernatant and spinning again at 25000 g 4° C. for 50 min, transferring pellet to Dounce homogenizer, re-suspending pellet by homogenizing in membrane buffer on ice to reach ˜25 mg/mL, then keeping whole cell membrane aliquots at −80° C.
Compounds were prepared in a 96-well U bottom plate (Corning Cat #7007) using an Echo550 machine and 10 mM compound DMSO stock solution, followed by an 8-dose 5-fold serial dilutions protocol with final testing compound concentration ranging from 0.06 to 5000 nM, with DMSO back fill to 100 nL/well and n=2. […] The UniFilter-96 GF/B plates (PerkinElmer Cat #6005177) were pre-treated by adding 50 μl/well of 0.3% (v/v) Polyethylenimine (PEI) (branched, Sigma Cat #408727) to UniFilter-96 GF/B plates. The plates were sealed and incubated at 4° C. for 3 hrs. Then, the plates were washed with ice-cold assay buffer 3 times. The radioligand binding assay was prepared by adding assay buffer diluted hEBP-DHCR7 membrane at 66.7 µg/ml×150 μl/well into the 96-well compound plate to reach 10 μg membrane per well. Then, the assay buffer diluted [3H]—(S)-6-(2-Methyl-3-(6-(trifluoromethyl)pyridin-3-yl)propyl)-2-thia-6-azaspiro[3.4]octane 2,2-dioxide (Moravek, Cat #MT-1003106) was added at 25 nM×50 μl/well. Following this, the plate was centrifuged at 1000 rpm for 30 secs. The plate was then sealed and agitated at 600 rpm at 22° C. for 5 min, and then incubated at 22° C. for 3 hrs. The incubation was stopped by transferring the binding solution to the pre-treated UniFilter-96 GF/B plate, vacuum filtrated, and then washed four times with ice-cold assay buffer. Following this, the plates were dried at 37° C. for 45 min. The plates were then sealed at the bottom. 40 µl/well of scintillation cocktail was added to the plates. A MicroBeta2 microplate counter was then used to read the plate and analyze the data. For reference and test compounds, the results are expressed as % Inhibition, using the normalization equation: N=100−100×(U−C2)/(C1−C2), where U is the unknown value, C1 is the average of high controls, and C2 is the average value of low controls.

[2] = system: zymostenol accumulation (EBP) in EpiSC-derived OPCs; assay: GC/MS-based sterol profiling, zymostenol accumulation in EpiSC-derived OPCs; type: cell-based, mouse; conditions: Mus musculus, 24 h, EpiSC-derived OPCs, 24 hr, 8 doses from 0.15 nM to 333 nM; read-out: Mouse Zymostenol GCMS EC50
Experimental: To assess effects of treatments on OPCs, all treatments were assayed in two or more independent platings of epiblast stem cell-derived OPCs (EpiSC). EpiSC-derived OPCs were obtained using in vitro differentiation protocols and culture conditions described previously (Najm et al, 2011, Nature Methods). OPCs were expanded and frozen down in aliquots. OPCs were thawed into growth conditions for at least one passage before use in further assays.
Sterols were monitored using a modified Folch wash protocol (Hubler et al, 2018, Nature). EpiSC-derived OPCs were plated at 100,000 cells per well in PO- and laminin-coated 96-well plates in N2B27 media without growth factors. After 24 hours, cells were rinsed with saline and plates were frozen. Cholesterol-d7 standard was then added to each well before drying under nitrogen stream and derivatization with 55 μl of bis(trimethylsilyl) trifluoroacetamide. After derivatization, 2 μl were analyzed by gas chromatography/mass spectrometry using an Agilent 5973 Network Mass Selective Detector equipped with a 6890 gas chromatograph system and a HP-5MS capillary column (30 m×0.25 mm×[…]). Samples were analyzed in full scan mode using electron impact ionization; ion fragment peaks were integrated to calculate sterol abundance, and quantitation was relative to cholesterol-d7. The following ion fragments were used to quantitate each metabolite: cholesterol-d7 (465), FF-Mas (482), cholesterol (368), zymostenol (458), zymosterol (456), Desmosterol (456, 343), 7-dehydrocholesterol (456, 325), lanosterol (393), lathosterol (458), 14-dehydrozymostenol (456, 351). […] All standards were obtained from Avanti Polar Lipids unless otherwise indicated. Calibration curves were generated by injecting varying concentrations of sterol standards and maintaining a fixed amount of cholesterol-D7. For normalized zymostenol accumulation results, the total amount of zymostenol measured after drug treatment was divided by the total amount of zymostenol accumulated after 24 hr treatment with 100 nM positive control reference.

human emopamil binding protein and human 7-dehydrocholesterol reductase (hEBP-DHCR7), sequence (Q15125 whole entry): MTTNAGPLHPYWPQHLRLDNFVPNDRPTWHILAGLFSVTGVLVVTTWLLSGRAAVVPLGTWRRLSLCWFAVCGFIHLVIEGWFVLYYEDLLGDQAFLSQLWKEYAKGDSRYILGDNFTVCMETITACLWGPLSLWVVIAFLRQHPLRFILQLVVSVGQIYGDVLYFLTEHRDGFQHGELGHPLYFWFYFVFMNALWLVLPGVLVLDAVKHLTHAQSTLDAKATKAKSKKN

| SMILES | Ki [1] [nM] | EC50 [2] [nM] |
| --- | --- | --- |
| CC(C)n1nc(-c2cccc(C(F)(F)F)n2)cc1[C@H]1[C@@H]2C[C@@H](N3CCN(C4CCC4)CC3)C[C@@H]21 [Compound 84, 1-Cyclobutyl-4-((1R,3s,5S,6r)-6-(1-isopropyl-3-(6-(trifluoromethyl)pyridin-2-yl)-1H-pyrazol-5-yl)bicyclo[3.1.0]hexan-3-yl)piperazine] | 27.8 | 3.49 |
| CC(C)n1nc(-c2cnc(C(F)(F)F)nc2)nc1[C@H]1CC[C@H](N2CCOCC2)C1 [Compound 94, 4-((1S,3S)-3-(1-Isopropyl-3-(2-(trifluoromethyl)pyrimidin-5-yl)-1H-1,2,4-triazol-5-yl)cyclopentyl)morpholine] | 243 | 187 |
| CC(C)n1nc(-c2cnc(C(F)(F)F)nc2)cc1[C@H]1[C@@H]2C[C@@H](N3CCOC[C@H]3C)C[C@@H]21 [Compound 96, (R)-4-((1R,3s,5S,6R)-6-(1-Isopropyl-3-(2-(trifluoromethyl)pyrimidin-5-yl)-1H-pyrazol-5-yl)bicyclo[3.1.0]hexan-3-yl)-3-methylmorpholine] | 631 | 928 |
| CC(C)n1nc(-c2cncc(C(F)(F)F)n2)cc1[C@H]1[C@@H]2C[C@H](N3CCOCC3)C[C@@H]21 [Compound 108, 4-((1R,3r,5S,6r)-6-(1-Isopropyl-3-(6-(trifluoromethyl)pyrazin-2-yl)-1H-pyrazol-5-yl)bicyclo[3.1.0]hexan-3-yl)morpholine] | 87.8 | 62 |
| CC(C)n1nc(-c2cncc(C(F)(F)F)c2)nc1[C@H]1[C@@H]2C[C@@H](N3CCOC[C@H]3C)C[C@@H]21 [Compound 119, (R)-4-((1R,3s,5S,6R)-6-(1-Isopropyl-3-(5-(trifluoromethyl)pyridin-3-yl)-1H-1,2,4-triazol-5-yl)bicyclo[3.1.0]hexan-3-yl)-3-methylmorpholine] | 584 | 213 |
| CC(C)n1nc(-c2cncc(C(F)(F)F)c2)nc1[C@H]1[C@@H]2C[C@@H](N3CCOC[C@@H]3C)C[C@@H]21 [Compound 121, (S)-4-((1R,3s,5S,6R)-6-(1-Isopropyl-3-(5-(trifluoromethyl)pyridin-3-yl)-1H-1,2,4-triazol-5-yl)bicyclo[3.1.0]hexan-3-yl)-3-methylmorpholine] | 564 | 193 |
| CC[C@H]1CN([C@@H]2CC[C@H](c3nc(-c4cncc(F)c4)nn3C(C)C)C2)CCO1 [Compound 123, (S)-2-Ethyl-4-((1R,3S)-3-(3-(5-fluoropyridin-3-yl)-1-isopropyl-1H-1,2,4-triazol-5-yl)cyclopentyl)morpholine] | 40.4 | 10.6 |
| CC[C@@H]1CN([C@@H]2CC[C@H](c3nc(-c4cncc(F)c4)nn3C(C)C)C2)CCO1 [Compound 124, (R)-2-Ethyl-4-((1R,3S)-3-(3-(5-fluoropyridin-3-yl)-1-isopropyl-1H-1,2,4-triazol-5-yl)cyclopentyl)morpholine] | 2400 | 376 |
| CC(C)n1nc(-c2cncc(Cl)c2)nc1[C@H]1CC[C@H](N2CCOC[C@@H]2C)C1 [Compound 125, (S)-4-((1S,3S)-3-(3-(5-Chloropyridin-3-yl)-1-isopropyl-1H-1,2,4-triazol-5-yl)cyclopentyl)-3-methylmorpholine] | 245 | 716 |
| CC(C)n1nc(-c2cncc(Cl)c2)nc1[C@H]1CC[C@@H](N2CCOC[C@@H]2C)C1 [Compound 126, (S)-4-((1R,3S)-3-(3-(5-Chloropyridin-3-yl)-1-isopropyl-1H-1,2,4-triazol-5-yl)cyclopentyl)-3-methylmorpholine] | 30.8 | 6.79 |
| CC(C)n1nc(-c2cnc(C(F)(F)F)nc2)nc1[C@H]1CC[C@H](N2CCO[C@H](C)C2)C1 [Compound 145, (R)-4-((1S,3S)-3-(1-isopropyl-3-(2-(trifluoromethyl)pyrimidin-5-yl)-1H-1,2,4-triazol-5-yl)cyclopentyl)-2-methylmorpholine] | 299 | 83.5 |

More lines, in order of falling Ki [1], values ahead:

| Ki [1] [nM] | EC50 [2] [nM] | SMILES |
| --- | --- | --- |
| 472 | 279 | CC(C)n1nc(-c2cccc(C(F)(F)F)n2)cc1[C@H]1[C@@H]2C[C@H](N3CCN(C4CCC4)CC3)C[C@@H]21 [Compound 85, 1-Cyclobutyl-4-((1R,3r,5S,6r)-6-(1-isopropyl-3-(6-(trifluoromethyl)pyridin-2-yl)-1H-pyrazol-5-yl)bicyclo[3.1.0]hexan-3-yl)piperazine] |
| 118 | 16.6 | CC[C@H]1CN([C@@H]2CC[C@H](c3nc(-c4ccc(C(F)(F)F)nc4)nn3C(C)C)C2)CCO1 [Compound 128, (S)-2-Ethyl-4-((1R,3S)-3-(1-isopropyl-3-(6-(trifluoromethyl)pyridin-3-yl)-1H-1,2,4-triazol-5-yl)cyclopentyl)morpholine] |
| 87.8 | 62 | CC(C)n1nc(-c2ccnc(C(F)(F)F)n2)cc1[C@H]1[C@@H]2C[C@H](N3CCOCC3)C[C@@H]21 [Compound 99, 4-((1R,3r,5S,6r)-6-(1-Isopropyl-3-(2-(trifluoromethyl)pyrimidin-4-yl)-1H-pyrazol-5-yl)bicyclo[3.1.0]hexan-3-yl)morpholine] |
| 73 | 55 | CC(C)n1nc(-c2ccnc(C(F)(F)F)n2)cc1[C@H]1[C@@H]2C[C@@H](N3CCOC[C@H]3C)C[C@@H]21 [Compound 102, (R)-4-((1R,3s,5S,6S)-6-(1-Isopropyl-3-(2-(trifluoromethyl)pyrimidin-4-yl)-1H-pyrazol-5-yl)bicyclo[3.1.0]hexan-3-yl)-3-methylmorpholine] |
| 26.6 | 7.81 | CC(C)n1nc(-c2cncc(C(F)(F)F)c2)nc1[C@H]1[C@@H]2C[C@H](N3CCOC[C@@H]3C)C[C@@H]21 [Compound 122, (S)-4-((1R,3r,5S,6R)-6-(1-Isopropyl-3-(5-(trifluoromethyl)pyridin-3-yl)-1H-1,2,4-triazol-5-yl)bicyclo[3.1.0]hexan-3-yl)-3-methylmorpholine] |
| 23.2 | 2.79 | CC[C@@H]1CN([C@@H]2CC[C@H](c3nc(-c4cncc(Cl)c4)nn3C(C)C)C2)CCO1 [Compound 129, (R)-4-((1R, 3S)-3-(3-(5-Chloropyridin-3-yl)-1-isopropyl-1H-1,2,4-triazol-5-yl)cyclopentyl)-2-ethylmorpholine] |
| 11 | 5.99 | CC(C)n1nc(-c2ccnc(C(F)(F)F)n2)cc1[C@H]1[C@@H]2C[C@@H](N3CCOC[C@@H]3C)C[C@@H]21 [Compound 100, (S)-4-((1R,3s,5S,6S)-6-(1-Isopropyl-3-(2-(trifluoromethyl)pyrimidin-4-yl)-1H-pyrazol-5-yl)bicyclo[3.1.0]hexan-3-yl)-3-methylmorpholine] |
